In US5026848A, “Novel generation of heteroaryloxyalkyl heterocycles with antipicornaviruses activities” (Synphar Laboratories Incorporated, priority 1988, dated 1991):
≈ marks a conversion by molar mass, not a printed value.

Assays:
[1] = tested on: 20 serotypes of rhinovirus; assay: Anti-rhinovirus activity against a panel of 20 serotypes; conditions: Table II; numerator; denominator 20, but 10 for compound 8 and 6 for compound 30
Rhinovirus 44 = assay: Anti-rhinovirus activity, cytopathic effect inhibition / neutral red dye uptake, type 44; assay type: cell-based; conditions: Enterovirus, WI-38; Table II; read-out: MIC 50 Rhinovirus Type 44
Rhinovirus 88 = assay: Anti-rhinovirus activity, cytopathic effect inhibition / neutral red dye uptake, type 88; assay type: cell-based; conditions: Enterovirus, WI-38; Table II; read-out: MIC 50 Rhinovirus Type 88
Rhinovirus 49 = assay: Anti-rhinovirus activity, cytopathic effect inhibition / neutral red dye uptake, type 49; assay type: cell-based; conditions: Enterovirus, WI-38; Table II; read-out: MIC 50 Rhinovirus Type 49
Coxsacki-A21 = assay: Activity against other picornaviruses, Coxsacki-A21; assay type: cell-based; conditions: Enterovirus, read-out: MIC 50 Cox. A21
Rhinovirus 1B = assay: Anti-rhinovirus activity, cytopathic effect inhibition / neutral red dye uptake, type 1B; assay type: cell-based; conditions: Enterovirus, WI-38; Table II; one of seven commonest serotypes; read-out: MIC 50 Rhinovirus Type 1B
Echo-7 = assay: Activity against other picornaviruses, Echo-7; assay type: cell-based; conditions: Enterovirus, read-out: MIC 50 Echo 7
Coxsacki-B1 = assay: Activity against other picornaviruses, Coxsacki-B1; assay type: cell-based; conditions: Enterovirus, read-out: MIC 50 Cox. B1
Rhinovirus 86 = assay: Anti-rhinovirus activity, cytopathic effect inhibition / neutral red dye uptake, type 86; assay type: cell-based; conditions: Enterovirus, WI-38; Table II; read-out: MIC 50 Rhinovirus Type 86
Rhinovirus 1A = assay: Anti-rhinovirus activity, cytopathic effect inhibition / neutral red dye uptake, type 1A; assay type: cell-based; conditions: Enterovirus, WI-38; Table I; WI38 cells, 33° C., 3-4 days; NA = Not active; read-out: MIC50 Rhinovirus 1A
Rhinovirus 53 = assay: Anti-rhinovirus activity, cytopathic effect inhibition / neutral red dye uptake, type 53; assay type: cell-based; conditions: Enterovirus, WI-38; Table II; read-out: MIC 50 Rhinovirus Type 53
Rhinovirus 63 = assay: Anti-rhinovirus activity, cytopathic effect inhibition / neutral red dye uptake, type 63; assay type: cell-based; conditions: Enterovirus, WI-38; Table II; read-out: MIC 50 Rhinovirus Type 63
HRV-1A and HRV-39 = assay: Anti-rhinovirus activity against HRV-1A and HRV-39; conditions: in words
Rhinovirus 31 = assay: Anti-rhinovirus activity, cytopathic effect inhibition / neutral red dye uptake, type 31; assay type: cell-based; conditions: Enterovirus, WI-38; Table II; one of seven commonest serotypes; read-out: MIC 50 Rhinovirus Type 31
Echo-11 = assay: Activity against other picornaviruses, Echo-11; assay type: cell-based; conditions: Enterovirus, read-out: MIC 50 Echo 11
WI38 cells = assay: Toxicity to WI38 cells (change in morphology in / growth inhibition of 25% of the cells); assay type: cell-based
Rhinovirus 2 = assay: Anti-rhinovirus activity, cytopathic effect inhibition / neutral red dye uptake, type 2; assay type: cell-based; conditions: Enterovirus, WI-38; Table II; one of seven commonest serotypes; read-out: MIC 50 Rhinovirus Type 2
Rhinovirus 56 = assay: Anti-rhinovirus activity, cytopathic effect inhibition / neutral red dye uptake, type 56; assay type: cell-based; conditions: Enterovirus, WI-38; Table II; read-out: MIC 50 Rhinovirus Type 56
Polio 1 = assay: microbe, parasite or virus in culture; assay type: cell-based; conditions: Enterovirus, read-out: MIC 50 Polio 1
Rhinovirus 17 = assay: Anti-rhinovirus activity, cytopathic effect inhibition / neutral red dye uptake, type 17; assay type: cell-based; conditions: Enterovirus, WI-38; Table II; read-out: MIC 50 Rhinovirus Type 17
Coxsacki-B4 = assay: Activity against other picornaviruses, Coxsacki-B4; assay type: cell-based; conditions: Enterovirus, read-out: MIC 50 Cox. B4
Rhinovirus 15 = assay: Anti-rhinovirus activity, cytopathic effect inhibition / neutral red dye uptake, type 15; assay type: cell-based; conditions: Enterovirus, WI-38; Table II; one of seven commonest serotypes; read-out: MIC 50 Rhinovirus Type 15
Rhinovirus 30 = assay: Anti-rhinovirus activity, cytopathic effect inhibition / neutral red dye uptake, type 30; assay type: cell-based; conditions: Enterovirus, WI-38; Table II; read-out: MIC 50 Rhinovirus Type 30
Enterovirus serotypes = assay type: cell-based
Rhinovirus 36 = assay: Anti-rhinovirus activity, cytopathic effect inhibition / neutral red dye uptake, type 36; assay type: cell-based; conditions: Enterovirus, WI-38; Table II; read-out: MIC 50 Rhinovirus Type 36
Rhinovirus 29 = assay: Anti-rhinovirus activity, cytopathic effect inhibition / neutral red dye uptake, type 29; assay type: cell-based; conditions: Enterovirus, WI-38; Table II; one of seven commonest serotypes; read-out: MIC 50 Rhinovirus Type 29
Rhinovirus 4 = assay: Anti-rhinovirus activity, cytopathic effect inhibition / neutral red dye uptake, type 4; assay type: cell-based; conditions: Enterovirus, WI-38; Table II; one of seven commonest serotypes; read-out: MIC 50 Rhinovirus Type 4
Rhinovirus 39 = assay: Anti-rhinovirus activity, cytopathic effect inhibition / neutral red dye uptake, type 39; assay type: cell-based; conditions: Enterovirus, WI-38; Table I; WI38 cells, 33° C., 3-4 days; read-out: MIC50 Rhinovirus 39
Rhinovirus 23 = assay: Anti-rhinovirus activity, cytopathic effect inhibition / neutral red dye uptake, type 23; assay type: cell-based; conditions: Enterovirus, WI-38; Table II; read-out: MIC 50 Rhinovirus Type 23
Rhinovirus 32 = assay: Anti-rhinovirus activity, cytopathic effect inhibition / neutral red dye uptake, type 32; assay type: cell-based; conditions: Enterovirus, WI-38; Table II; read-out: MIC 50 Rhinovirus Type 32
Coxsacki-A9 = assay: Activity against other picornaviruses, Coxsacki-A9; assay type: cell-based; conditions: Enterovirus, read-out: MIC 50 Cox. A9

## c1ccc2c(c1)oc1ccc(OCCCCCCc3ccns3)cc12 [Compound 25]
[1]
  All Rhinovirus Serotypes (number of serotypes active / tested): 16
Rhinovirus 44
  EC50: 5 µg/mL (≈ 14.2 µM)
Rhinovirus 88
  EC50: 10 µg/mL (≈ 28.5 µM)
Rhinovirus 49
  EC50: > 25 µg/mL
Coxsacki-A21
  IC50: 5 µg/mL (≈ 14.2 µM)
Rhinovirus 1B
  IC50: 5 µg/mL (≈ 14.2 µM)
Echo-7
  IC50: 5 µg/mL (≈ 14.2 µM)
Coxsacki-B1
  IC50: > 25 µg/mL
Rhinovirus 86
  EC50: 10 µg/mL (≈ 28.5 µM)
Rhinovirus 1A
  EC50: 10 µg/mL (≈ 28.5 µM)
Rhinovirus 53
  EC50: 10 µg/mL (≈ 28.5 µM)
Rhinovirus 63
  EC50: 5 µg/mL (≈ 14.2 µM)
HRV-1A and HRV-39
  inhibitory activity against HRV-1A and HRV-39 in vitro: remarkably inhibitory activity
Rhinovirus 31
  EC50: > 25 µg/mL
Echo-11
  IC50: > 25 µg/mL
WI38 cells; Table I, concentration with change in morphology in 25% of WI38 cells
  Toxicity: 50 µg/mL
WI38 cells; Table II
  Toxicity: 50 µg/mL
WI38 cells; Table III
  Toxicity: 50 µg/mL
Rhinovirus 2
  IC50: 20 µg/mL (≈ 56.9 µM)
Rhinovirus 56
  EC50: 10 µg/mL (≈ 28.5 µM)
Polio 1
  EC50: 10 µg/mL (≈ 28.5 µM)
Rhinovirus 17
  IC50: 10 µg/mL (≈ 28.5 µM)
Coxsacki-B4
  IC50: > 25 µg/mL
Rhinovirus 15
  IC50: 10 µg/mL (≈ 28.5 µM)
Rhinovirus 30
  IC50: 10 µg/mL (≈ 28.5 µM)
Enterovirus serotypes
  inhibitory activity against the members of the Entero virus family: remarkable inhibitory activity
Enterovirus serotypes; Table III, numerator, denominator 7, but 5 for compound 8
  All Enterovirus Serotypes (number of serotypes active / tested): 4
Rhinovirus 36
  EC50: > 25 µg/mL
Rhinovirus 29
  IC50: 5 µg/mL (≈ 14.2 µM)
Rhinovirus 4
  IC50: > 25 µg/mL
Rhinovirus 39
  EC50: 5 µg/mL (≈ 14.2 µM)
Rhinovirus 23
  IC50: 5 µg/mL (≈ 14.2 µM)
Rhinovirus 32
  EC50: 10 µg/mL (≈ 28.5 µM)
Coxsacki-A9
  EC50: 10 µg/mL (≈ 28.5 µM)
